Assay type in all cases: biochemical, S. cerevisiae
In data set [1] the target is T1, Invertase (EC 3.2.1.26, β-fructofuranosidase) (Saccharomyces cerevisiae, UniProt P00724).
T1 construct: purchased Sigma-Aldrich
As to the kind of experiment: Glucometer-based Michaelis-Menten kinetics of invertase-catalysed sucrose hydrolysis. To be noted: for reaction velocity of the sucrose: sucralose 20 mM or lower (FIG. 11). An excerpt: (§1) Invertase (EC 3.2.1.26, β-fructofuranosidase, S. cerevisiae) was purchased from Sigma-Aldrich with a specific activity of >300 u/mg of solid (pH 4.6, 303 K).

Data set [2] addresses T1, Invertase (EC 3.2.1.26, β-fructofuranosidase). Briefly: Real-time 1H-NMR (qNMR) progress curve analysis of invertase-catalysed sucrose hydrolysis, Lambert-W fit. As to conditions: for β-anomer of glucose formed: in the presence of sucralose (FIG. 5); for α-anomer of glucose formed: in the presence of sucralose (FIG. 5, 50 mM each).
Excerpt: Equation [5], derived from Equation [2], relates the substrate concentration at any time ([S]) to its initial concentration ([S]0), the Michaelis-Menten kinetic parameters Vmax and KM. Equation [5] is used to fit the real time experimental data obtained for enzyme kinetics using the analysis code written using R-Statistical environment (R Core Team 2014).
as §1
Two standard samples were made in standard 5 mm NMR tubes to set up the NMR parameter.
All NMR kinetics solutions were made in an Eppendorf tube with a volume of 550 μL prior to adding 100 μL of invertase into the Eppendorf tube then transferring 600 μL of the solution into a NMR tube. The 100 μL invertase solution was added into the Eppendorf tube when the NMR kinetics experiment was ready to start. A timer was set at the beginning of the addition of the invertase solution in order to account for the delay time (the time before the collection of the NMR spectra) as this is a crucial part of the latter calculation.
^1H-NMR time-course data were collected in real time by qNMR (Vairan-Agilent, VNMRS system) and the kinetic data were subsequently processed using a non-linear least square fit procedure by using the Lambert-W function. This method was applied to determine the effect on the enzyme kinetics of hydrolysis, a fundamental step in converting the sucrose to glucose and fructose. Experimental results obtained using the direct real-time measurements were validated using a glucometer based approach.
The spectrometer software is used to find the integration under each peak of the sucrose (5.41 ppm) and TSP (0.0 ppm). The concentration of the sucrose peak is calculated with reference to the known concentration of TSP. If multiple experiments are performed, averages and standard deviations of the integrations of the trials at each temperature is calculated. A two-column excel or text (tab limited format) with X=Time and Y=[S] is produced as the input to the R-program. The written code utilizes the following external libraries: spatstat and gsl (to implement functions such as LambertW function), xtable (for table manipulations) and ggplot2 (to make plots (optional)). The R-code reads the input file and creates a data fit, statistics and plot with the experimental and fitted values. Typically the procedure works with a minimum of 15 time points sampled uniformly over the experimental time period chosen and it utilizes a non-linear least square fitting procedure. In addition to generating a plot (FIG. 10A), the code generates a file in picture format (.png) and a tab-limited text file that can be imported into other plotting routines. The statistical parameters of the fit (FIG. 10B) are also available in a tabular form for reporting purposes, which includes the fitted values (Coef.), standard error of the fit, t-statistics and p-value for each of the parameters. If the signal has not decayed to zero, an additional parameter (FIG. 10B) can be used as an offset.

Substrate in data set [3]: OC[C@H]1O[C@@](CO)(O[C@H]2O[C@H](CO)[C@@H](O)[C@H](O)[C@H]2O)[C@@H](O)[C@@H]1O
The data set is described as above. To be noted: 30.0 °C.

Where [4] appears, read: other: Average of three trials, sucrose 42 mM, no sucralose.
The mark [5] stands for this setting: other: Trial 1, sucrose 42 mM, no sucralose.
Setting [6] is: other: Trial 2, sucrose 42 mM, no sucralose.
Setting [7] is: other: Trial 3, sucrose 42 mM, no sucralose.
Where [8] appears, read: other: no sucralose (0 mM), sucrose 40 mM, sucrose:sucralose 1:0.

Entries after “also recorded” stand apart in the source; their conditions may differ.

As usually defined, the Vmax is the rate approached at saturating substrate. As for `OC[C@H]1O[C@H](O[C@]2(CCl)O[C@H](CCl)[C@@H](O)[C@@H]2O)[C@H](O)[C@@H](O)[C@H]1Cl` [sucralose], the “inhibition (substrate inhibition model curve)” value in data set [1] (molar ratio of sucrose to sucralose 1:0.25 (FIG. 13)) was “more than 50%”. Moreover, the “reaction velocity of the sucrose” value in data set [1] (substrate concentration 0.1 M) and in data set [1] (substrate concentration about 0.27 M) was “over 0.4 M/min” throughout. The entries for the “decrease of the maximal velocity (Vmax)” value in data set [2] (1:2 ratio of sucrose:sucralose) and in data set [2] (addition of sucralose (50 mM)) were approximately 33% and 37%, respectively. In addition, in data set [2] (1:2 ratio of sucrose:sucralose), the “enzyme catalytic activity inhibited” value turned out to be 50%. The “increase of the KM value” in data set [2] (1:2 ratio of sucrose:sucralose) is given as approximately 50%; in data set [2] (sucralose 50 mM), “more than 20%”. Also, the “β-anomer of glucose formed” value in data set [2] (after 20 minutes) is reported as “about 7 mM”; in data set [2] (after 60 minutes), “about 10 mM”; in data set [2] (after 120 minutes) it was “about 17 mM”. The sucrose concentration remaining entry in data set [2] (after 60 minutes of enzymatic conversion, in the presence of sucralose, starting sucrose 50 mM (FIG. 4)) is reported as “about 15 mM”. For the same molecule, the “α-anomer of glucose formed” value was “about 22 mM” in data set [2] (after 60 minutes) and “about 22.5 mM” in data set [2] (after 120 minutes). Besides, the Vmax in data set [2] (in the presence of sucralose, FIG. 4 (equimolar sucrose:sucralose, ~50 mM each)) came to 1.87 µM/min; in data set [2] (sucralose 1 mM, sucrose 40 mM (40:1)), 2.71 ± 0.04 µM/min; in data set [2] (sucralose 5 mM, sucrose 40 mM (8:1)) it was 2.95 ± 0.04 µM/min; in data set [2] (sucralose 10 mM, sucrose 40 mM (4:1)), 2.61 ± 0.03 µM/min; in data set [2] (sucralose 20 mM, sucrose 40 mM (2:1)), 2.49 ± 0.02 µM/min; in data set [2] (sucralose 40 mM, sucrose 40 mM (1:1)), 2.25 ± 0.02 µM/min. For the same molecule, the maximal velocity (Vmax) in data set [2] (sucralose 60 mM, sucrose 40 mM (1:1.5)) worked out at 1.87 ± 0.02 µM/min; in data set [2] (sucralose 80 mM, sucrose 40 mM (1:2)), 1.72 ± 0.02 µM/min. Also, the “decrease of Vmax per unit increase of sucralose” value in data set [2] (regression line, FIG. 12B) came to 6.54 ± 0.03 µM/min. In data set [2] (regression line, FIG. 12C), the “decrease of catalytic efficiency of the enzyme per unit increase of sucralose (in mM)” value stood at 152.1 mM^2/min. In addition, in data set [2] (sucralose 50 mM), the “reduction of the enzymatic activity of the invertase” value is listed as 20%. In addition, the “conversion of sucralose by enzymatic hydrolysis (invertase)” value in data set [2] (sucralose concentration during sucrose hydrolysis) is on record as “not affected by enzymatic hydrolysis; also recorded: not converted”.
`OC[C@H]1O[C@@](CO)(O[C@H]2O[C@H](CO)[C@@H](O)[C@H](O)[C@H]2O)[C@@H](O)[C@@H]1O` [sucrose]: the maximal velocity (Vmax) in data set [2] (no sucralose (0 mM), sucrose 40 mM, sucrose:sucralose 1:0) turned out to be 2.57 ± 0.03 µM/min.

B1: Invertase (EC 3.2.1.26, β-fructofuranosidase) (Saccharomyces cerevisiae S288C) (protein)
chain: SMTNETSDRPLVHFTPNKGWMNDPNGLWYDEKDAKWHLYFQYNPNDTVWGTPLFWGHATSDDLTNWEDQPIAIAPKRNDSGAFSGSMVVDYNNTSGFFNDTIDPRQRCVAIWTYNTPESEEQYISYSLDGGYTFTEYQKNPVLAANSTQFRDPKVFWYEPSQKWIMTAAKSQDYKIEIYSSDDLKSWKLESAFANEGFLGYQYECPGLIEVPTEQDPSKSYWVMFISINPGAPAGGSFNQYFVGSFNGTHFEAFDNQSRVVDFGKDYYALQTFFNTDPTYGSALGIAWASNWEYSAFVPTNPWRSSMSLVRKFSLNTEYQANPETELINLKAEPILNISNAGPWSRFATNTTLTKANSYNVDLSNSTGTLEFELVYAVNTTQTISKSVFADLSLWFKGLEDPEEYLRMGFEVSASSFFLDRGNSKVKFVKENPYFTNRMSVNNQPFKSENDLSYYKVYGLLDQNILELYFNDGDVVSTNTYFMTTGNALGSVNMTTGVDNLFYIDKFQVREVK
notes: purchased Sigma-Aldrich
A word on the Km: it is the concentration of substrate that gives half-maximal velocity. Turning to B1, the Michaelis-Menten constant (Km) stood at 38.57 ± 3.72 mM in data set [3] (setting [4]); 34.69 ± 3.96 mM in data set [3] (setting [5]); 43.59 ± 11.90 mM in data set [3] (setting [6]); 37.44 ± 7.79 mM in data set [3] (setting [7]); 50.60 mM in data set [3] (setting [8]). Also, the Vmax in data set [3] (setting [4]) was found to be 2.54 ± 0.18 µM/min; in data set [3] (setting [5]), 2.34 ± 0.18 µM/min; in data set [3] (setting [6]), 2.77 ± 0.54 µM/min; in data set [3] (setting [7]), 2.51 ± 0.36 µM/min; in data set [3] (setting [8]), 2.57 ± 0.03 µM/min.

The values above are taken from US10612071B2, “Method of measuring the deleterious effects of non-caloric artificial sweeteners on enzymatic hydrolysis of sucrose measured in real time” (California State University, Fresno, priority 2016, dated 2020).
